The target of the assay is T1, JMJD2C (Homo sapiens, UniProt Q9H3R0).
T1 construct: purchased BPS Bioscience 50105
T1 sequence (Q9H3R0 2-372): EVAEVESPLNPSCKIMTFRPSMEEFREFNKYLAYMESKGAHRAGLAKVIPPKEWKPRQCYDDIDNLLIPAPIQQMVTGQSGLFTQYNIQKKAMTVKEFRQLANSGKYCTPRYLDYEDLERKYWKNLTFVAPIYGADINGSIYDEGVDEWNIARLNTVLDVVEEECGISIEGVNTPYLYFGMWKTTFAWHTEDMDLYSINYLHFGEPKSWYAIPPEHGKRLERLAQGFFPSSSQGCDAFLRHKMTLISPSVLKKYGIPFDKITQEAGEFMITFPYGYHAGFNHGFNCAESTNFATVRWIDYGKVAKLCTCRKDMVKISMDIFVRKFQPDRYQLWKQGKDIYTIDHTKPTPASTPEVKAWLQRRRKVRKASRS
In words: JMJD2C in vitro enzyme inhibition assay (TR-FRET). In kind it is biochemical. The conditions noted are these: Table 5; 0.3 nM JMJD2C, H3K9me3-biotin labeled peptide. From the text:
This assay determines the ability of a test compound to inhibit Jarid1B, JMJD2C and JMJD3 demethylase activity. Baculovirus expressed Jarid1B (GenBank Accession #NM-006618, AA 2-751) was purchased from BPS Bioscience (Cat #50121) or custom made by MolecularThroughput. Baculovirus expressed JMJD2C (GenBank Accession #BC143571, AA 2-372) was purchased from BPS Bioscience (Cat#50105). Baculovirus expressed JMJD3 (GenBank Accession #NM-001080424, AA1043-end) was purchased from BPS Bioscience (Cat#50115).
The ability of test compounds to inhibit the activity of JMJD2C was determined in 384-well plate format under the following reaction conditions: 0.3 nM JMJD2C, 300 nM H3K9me3-biotin labeled peptide (Anaspec cat #64360), 2 µM alpha-ketoglutaric acid in assay buffer of 50 mM HEPES, pH7.3, 0.005% Brij35, 0.5 mM TCEP, 0.2 mg/ml BSA, 50 µM sodium L-ascorbate, and 2 µM ammonium iron(II) sulfate. Reaction product was determined quantitatively by TR-FRET after the addition of detection reagent Phycolink Streptavidin-allophycocyanin (Prozyme) and Europium-anti-di-methylated histone H3 lysine 9 (H3K9me2) antibody (PerkinElmer) in the presence of 5 mM EDTA in LANCE detection buffer (PerkinElmer) at a final concentration of 50 nM and 1 nM, respectively.
The assay reaction was initiated by the following: 2 µl of the mixture of 900 nM H3K9me3-biotin labeled peptide and 6 µM alpha-ketoglutaric acid with 2 µl of 11-point serial diluted inhibitor in 3% DMSO were added to each well of the plate, followed by the addition of 2 µl of 0.9 nM JMJD2C to initiate the reaction. The reaction mixture was incubated at room temperature for 30 minutes, and terminated by the addition of 6 µl of 5 mM EDTA in LANCE detection buffer containing 100 nM Phycolink Streptavidin-allophycocyanin and 2 nM Europium-anti-H3K9me2 antibody. Plates were read by EnVisionMultilabel Reader in TR-FRET mode (excitation at 320 nm, emission at 615 nm and 665 nm) after 1 hour incubation at room temperature. A ratio was calculated (665/615) for each well and fitted to determine inhibition constant (IC50).

The results in this text go back to EP3436445B1, “HISTONE DEMETHYLASE INHIBITORS” (Celgene Quanticel Research, Inc., priority 2016, dated 2017).

Usually IC50 stands for the concentration that gives 50% inhibition. A high value points to a need for much substance.

For `FC(F)(F)c1[nH]nnc1-c1ccnc(-c2cn(CCc3ccccc3Cl)cn2)c1` [Example 57], the IC50 was more than 10 µM.
As to `FC(F)(F)c1[nH]nnc1-c1ccnc(-c2cn(CC3CCCc4ccccc43)cn2)c1` (centres unmarked) [Example 58, 2-{1-[(1,2,3,4-tetrahydronaphthalen-1-yl)methyl]-1H-imidazol-4-yl}-4-[5-(trifluoromethyl)-1H-1,2,3-triazol-4-yl]pyridine], the IC50 is more than 10 µM.
Compound `CCOc1ccccc1CCn1cnc(-c2cc(-c3nn[nH]c3C(F)(F)F)ccn2)c1` [Example 59] had an IC50 of more than 10 µM.
The compound `FC(F)(F)c1ccccc1CCn1cnc(-c2cc(-c3nn[nH]c3C(F)(F)F)ccn2)c1` [Example 60, 4-[5-(trifluoromethyl)-1H-1,2,3-triazol-4-yl]-2-(1-{2-[2-(trifluoromethyl)phenyl]ethyl}-1H-imidazol-4-yl)pyridine] yielded an IC50 of 1 to 10 µM.
Regarding `Fc1ccc(Cn2cnc(-c3cc(-c4nn[nH]c4C(F)(F)F)ccn3)c2)cc1` [Example 61, 2-{1-[(4-fluorophenyl)methyl]-1H-imidazol-4-yl}-4-[5-(trifluoromethyl)-1H-1,2,3-triazol-4-yl]pyridine], the IC50 is more than 10 µM.
In turn, `Fc1ccccc1Cn1cnc(-c2cc(-c3nn[nH]c3C(F)(F)F)ccn2)c1` [Example 62, 2-{1-[(2-fluoroprtenyl)methyl]-1H-imidazol-4-yl}-4-[5-(trifluoromethyl)-1H-1,2,3-triazol-4-yl]pyridine] displayed an IC50 of more than 10 µM.
Compound `FC(F)(F)c1[nH]nnc1-c1ccnc(-c2cn(Cc3ccc(Cl)cc3)cn2)c1` [Example 63, 2-{1-[(4-chlorophenyl)methyl]-1H-imidazol-4-yl}-4-[5-(trifluoromethyl)-1H-1,2,3-triazol-4-yl]pyridine] displayed an IC50 of more than 10 µM.
Regarding `FC(F)(F)c1[nH]nnc1-c1ccnc(-c2cn(Cc3ccccc3Cl)cn2)c1` [Example 64, 2-{1-[(2-chlorophenyl)methyl]-1H-imidazol-4-yl}-4-[5-(trifluoromethyl)-1H-1,2,3-triazol-4-yl]pyridine], the IC50 was more than 10 µM.
In turn, `Cc1ccc(Cn2cnc(-c3cc(-c4nn[nH]c4C(F)(F)F)ccn3)c2)cc1` [Example 65, 2-{1-[(4-methylphenyl)methyl]-1H-imidazol-4-yl}-4-[5-(trifluoromethyl)-1H-1,2,3-triazol-4-yl]pyridine] returned an IC50 of more than 10 µM.
With `Cc1ccccc1Cn1cnc(-c2cc(-c3nn[nH]c3C(F)(F)F)ccn2)c1` [Example 66, 2-{1-[(2-methylphenyl)methyl]-1H-imidazol-4-yl}-4-[5-(trifluoromethyl)-1H-1,2,3-triazol-4-yl]pyridine], the half-inhibitory concentration (IC50) is more than 10 µM.
Consider `COc1ccc(Cn2cnc(-c3cc(-c4nn[nH]c4C(F)(F)F)ccn3)c2)cc1` [Example 67, 2-{1-[(4-methoxyphenyl)methyl]-1H-imidazol-4-yl}-4-[5-(trifluoromethyl)-1H-1,2,3-triazol-4-yl]pyridine], for which the IC50 fell in the range of 1 to 10 µM.
The compound `Fc1ccc(Cn2cnc(-c3cc(-c4nn[nH]c4C(F)(F)F)ccn3)c2)c(F)c1` [Example 68, 2-{1-[(2,4-difluorophenyl)methyl]-1H-imidazol-4-yl}-4-[5-(trifluoromethyl)-1H-1,2,3-triazol-4-yl]pyridine] came in with an IC50 of more than 10 µM.
The figure for `Fc1cccc(F)c1Cn1cnc(-c2cc(-c3nn[nH]c3C(F)(F)F)ccn2)c1` [Example 69, 2-{1-[(2,6-difluorophenyl)methyl]-1H-imidazol-4-yl}-4-[5-(trifluoromethyl)-1H-1,2,3-triazol-4-yl]pyridine] is more than 10 µM.
In turn, `Cc1cc(F)ccc1Cn1cnc(-c2cc(-c3nn[nH]c3C(F)(F)F)ccn2)c1` [Example 70, 2-{1-[(4-fluoro-2-methylphenyl)methyl]-1H-imidazol-4-yl}-4-[5-(trifluoromethyl)-1H-1,2,3-triazol-4-yl]pyridine] had an IC50 of more than 10 µM.
The figure for `Cc1ccc(Cn2cnc(-c3cc(-c4nn[nH]c4C(F)(F)F)ccn3)c2)c(F)c1` [Example 71, 2-{1-[(2-fluoro-4-methylphenyl)methyl]-1H-imidazol-4-yl}-4-[5-(trifluoromethyl)-1H-1,2,3-triazol-4-yl]pyridine] is more than 10 µM; for `FC(F)(F)c1[nH]nnc1-c1ccnc(-c2cn(Cc3ccccc3)cn2)c1` [Example 72, 2-(1-benzyl-1H-imidazol-4-yl)-4-[5-(trifluoromethyl)-1H-1,2,3-triazol-4-yl]pyridine] it is more than 10 µM; for `CC(c1ccccc1)n1cnc(-c2cc(-c3nn[nH]c3C(F)(F)F)ccn2)c1` (centres unmarked) [Example 73, 2-[1-(1-phenylethyl)-1H-imidazol-4-yl]-4-[5-(trifluoromethyl)-1H-1,2,3-triazol-4-yl]pyridine] it is more than 10 µM.
`CCC(c1ccccc1)n1cnc(-c2cc(-c3nn[nH]c3C(F)(F)F)ccn2)c1` (centres unmarked) [Example 74, 2-[1-(1-phenylpropyl)-1H-imidazol-4-yl]-4-[5-(trifluoromethyl)-1H-1,2,3-triazol-4-yl]pyridine]: the IC50 was more than 10 µM.
`CC(C)C(c1ccccc1)n1cnc(-c2cc(-c3nn[nH]c3C(F)(F)F)ccn2)c1` (centres unmarked) [Example 75, 2-[1-(2-methyl-1-phenylpropyl)-1H-imidazol-4-yl]-4-[5-(trifluoromethyl)-1H-1,2,3-triazol-4-yl]pyridine] registered an IC50 of more than 10 µM.
The compound `FC(F)(F)COc1ccccc1Cn1cnc(-c2cc(-c3nn[nH]c3C(F)(F)F)ccn2)c1` [Example 76, 2-(1-{[2-(2,2,2-trifluoroethoxy)phenyl]methyl}-1H-imidazol-4-yl)-4-[5-(trifluoromethyl)-1H-1,2,3-triazol-4-yl]pyridine] displayed an IC50 of more than 10 µM.
The figure for `Fc1ccc(CCn2cnc(-c3cc(-c4nn[nH]c4C(F)(F)F)ccn3)c2)cc1` [Example 77] is more than 10 µM.
`Fc1cccc(CCn2cnc(-c3cc(-c4nn[nH]c4C(F)(F)F)ccn3)c2)c1` [Example 78, 2-{1-[2-(3-fluorophenyl)ethyl]-1H-imidazol-4-yl}-4-[5-(trifluoromethyl)-1H-1,2,3-triazol-4-yl]pyridine] showed an IC50 of more than 10 µM.
Take `Fc1cccc(CCn2cnc(-c3cc(-c4nn[nH]c4C(F)(F)F)ccn3)c2)c1F` [Example 79, 2-{1-[2-(2,3-difluorophenyl)ethyl]-1H-imidazol-4-yl}-4-[5-(trifluoromethyl)-1H-1,2,3-triazol-4-yl]pyridine]: the half-maximal inhibitory concentration (IC50) is more than 10 µM.
`Fc1cccc(Cl)c1CCn1cnc(-c2cc(-c3nn[nH]c3C(F)(F)F)ccn2)c1` [Example 80, 2-{1-[2-(2-chloro-6-fluorophenyl)ethyl]-1H-imidazol-4-yl}-4-[5-(trifluoromethyl)-1H-1,2,3-triazol-4-yl]pyridine] registered an IC50 of more than 10 µM.
For `Fc1cc(F)c(CCn2cnc(-c3cc(-c4nn[nH]c4C(F)(F)F)ccn3)c2)cc1F` [Example 81, 4-[5-(trifluoromethyl)-1H-1,2,3-triazol-4-yl]-2-{1-[2-(2,4,5-trifluorophenyl)ethyl]-1H-imidazol-4-yl}pyridine], the IC50 is more than 10 µM.
Compound `Fc1cc(F)c(CCn2cnc(-c3cc(-c4nn[nH]c4C(F)(F)F)ccn3)c2)c(F)c1` [Example 82, 4-[5-(trifluoromethyl)-1H-1,2,3-triazol-4-yl]-2-{1-[2-(2,4,6-trifluorophenyl)ethyl]-1H-imidazol-4-yl}pyridine] gave an IC50 of more than 10 µM.
